Results reported in patent US20100093541A1, “HERBICIDE COMBINATION COMPRISING DIMETHOXYTRIAZINYL SUBSTITUTED DIFLUOROMETHANESULFONYLANILIDES” (BAYER CROPSCIENCE AG, priority 2008, published 2010).

How the values were obtained:
Assay type in all cases: in vivo
[1] = system: Triticum aestivum (TRZAS); assay: Post-emergence action, greenhouse pot test, visual scoring
Experimental: (§1) Seeds or rhizome pieces of mono- and dicotyledonous harmful and useful plants were placed in peat pots (diameter 4 cm) filled with sandy loam and then covered with soil. The pots were kept in a greenhouse under optimum conditions. In addition, harmful plants encountered in paddy rice cultivation were cultivated in pots with a water level 2 cm above the soil surface.
(§2) About three weeks after the start of the cultivation, the test plants were treated at the 2- to 3-leaf stage. The herbicides, formulated as powder or liquid concentrates, were, either alone or in the combinations according to the invention, sprayed in various dosages on to the green parts of the plants using an application rate of 600 l of water/ha (converted). For further cultivation of the plants, the pots were then again kept under optimum conditions in a greenhouse.
(§3) The visual scoring of the herbicidal effects was carried out in intervals up to 21 days after the treatment. Scoring was carried out in percent in comparison to the untreated control plants. 0%=no herbicidal activity, 100%=complete herbicidal activity=complete kill.
(§4) The percentages from the treatments with the herbicides alone (=individual application) and with the combinations according to the invention (=mixtures) were employed to calculate interactions using the method of Colby. When the observed efficacies of the mixtures exceed the formal sum of the values of the tests with individual applications, they also exceed the expected value according to Colby, which is calculated using the formula below (cf. S. R. Colby; in Weeds 15 (1967) pp. 20 to 22):
(§5) • A, B=activity of components A and B in percent at a dosage of a and b g of ai/ha (=gramm of active substance per hectare), respectively. • E=expected value in % at a dosage of a+b g of ai/ha.
(§6) The combinations according to the invention of herbicides from group (A) with herbicides from group (B) were tested on a broad spectrum of important harmful plants (weed grasses, broad-leaved weeds/Cyperaceae) and useful plants: Triticum aestivum (TRZAS), Stellaria media (STEME), Lolium multiflorum (LOLMU), Veronica persica (VERPE), Alopecurus myosuroides (ALOMY), Matricaria inodora (MATIN), Brassica napus (BRSNW), Viola tricolor (VIOTR), Avena fatua (AVEFA), Amaranthus retroflexus (AMARE), Zea mays (ZEAMX), Pharbitis purpurea (PHBPU), Setaria viridis (SETVI), Fallopia (ex Polygonum) convolvulus (POLCO), Echinochloa crus-galli (ECHCG), Abuthilon theophrasti (ABUTH), Cyperus esculentus (CYPES), Oryza sativa (ORYSA).
(§7) Of particular interest are the results shown in the tables (Tab.) below, where the following key is used: • (1) EPPO code (former Bayer code) for the treated plant (see above) • (2) Time of scoring: DAT (days after treatment) • (3) Component A tested (identifying number) • (4) Component B tested (identifying number) • (5) Dosage component A [g of ai/ha] • (6) Dosage component B [g of ai/ha] • (7) % activity found • (8) E value (calculated according to Colby; see above) • (9) Comments: “SYNERGY”=synergistic interaction (E value<% activity found); “SAFENING”=safener action on useful plant (E value>% activity found)

Viola tricolor (VIOTR) = assay: Post-emergence action against weeds, greenhouse pot test, visual scoring
Experimental: as §1, §2, §3, §4, §5, §6, §7

[2] = system: Fallopia (ex Polygonum) convolvulus (POLCO); assay: as above; details: 10 DAT, component B 150 g of ai/ha
Experimental: as §1, §2, §3, §4, §5, §6, §7

Setaria viridis (SETVI) = assay: as above
Experimental: as §1, §2, §3, §4, §5, §6, §7

[3] = system: Matricaria inodora (MATIN); assay: as above; details: 21 DAT
Experimental: as §1, §2, §3, §4, §5, §6, §7

Avena fatua (AVEFA) = assay: as above
Experimental: as §1, §2, §3, §4, §5, §6, §7

[4] = system: Cyperus esculentus (CYPES); assay: as above
Experimental: as §1, §2, §3, §4, §5

Zea mays (ZEAMX) = assay: Post-emergence action, greenhouse pot test, visual scoring
Experimental: as §1, §2, §3, §4, §5, §6, §7

Oryza sativa (ORYSA) = assay: as above; details: 21 DAT, component B 150 g of ai/ha
Experimental: as §1, §2, §3, §4, §5, §6, §7

[5] = system: Alopecurus myosuroides (ALOMY); assay: Post-emergence action against weeds, greenhouse pot test, visual scoring; details: 21 DAT, component B 40 g of ai/ha
Experimental: as §1, §2, §3, §4, §5, §6, §7

[6] = 10 DAT, component B 50 g of ai/ha
[7] = 21 DAT, component B 150 g of ai/ha
[8] = 21 DAT, component B 50 g of ai/ha
[9] = 21 DAT, component B 40 g of ai/ha
[10] = 21 DAT, component B 120 g of ai/ha

Compound: COc1nc(OC)nc(C(=O)c2cccc(F)c2N(C)S(=O)(=O)C(F)F)n1 [A-1]
- % activity found ([1]; 21 DAT, component A 12 g of ai/ha, Table 16): 0%

Compound: N#Cc1cc(Br)c(O)c(Br)c1 [B1-1, 3,5-dibromo-4-hydroxybenzonitrile]
- % activity found (Viola tricolor (VIOTR); [6]): 20%
- % activity found (Viola tricolor (VIOTR); [7]): 20%
- % activity found [2]: 10%
- % activity found (Setaria viridis (SETVI); [6]): 20%
- % activity found (Setaria viridis (SETVI); [8]): 20%
- % activity found (Setaria viridis (SETVI); [7]): 20%
- % activity found ([3]; component B 150 g of ai/ha): 70%
- % activity found ([3]; component B 150 g of ai/ha, Table 9): 60%
- % activity found (Avena fatua (AVEFA); [6]): 0%
- % activity found [4, 6]: 0%
- % activity found [4, 8]: 0%
- % activity found [4, 7]: 0%
- % activity found [1, 7]: 0%
- % activity found (Zea mays (ZEAMX); [6]): 0%
- % activity found (Zea mays (ZEAMX); 10 DAT, component B 150 g of ai/ha): 20%
- % activity found (Zea mays (ZEAMX); [8]): 0%
- % activity found (Oryza sativa (ORYSA)): 0%

Compound: C#CCN(C)c1c(C#N)cnn1-c1nn2c(c1Cl)CCCC2 [B1-4, 1-(3-chloro-4,5,6,7-tetrahydropyrazolo[1,5-a]pyridin-2-yl)-5-(methyl-2-propynylamino)-1H-pyrazole-4-carbonitrile]
- % activity found [5]: 30%
- % activity found ([3]; component B 120 g of ai/ha): 80%
- % activity found (Avena fatua (AVEFA); [9]): 40%
- % activity found [4, 10]: 40%
- % activity found ([1]; 10 DAT, component B 40 g of ai/ha): 40%
- % activity found ([1]; 10 DAT, component B 120 g of ai/ha): 60%
- % activity found [1, 9]: 30%
- % activity found [1, 10]: 60%
